According to patent US20190127456A1, “METHODS OF TREATING IDIOPATHIC PULMONARY FIBROSIS” (FibroGen, Inc., priority 2017, published 2019):

Columns and labels:
[1] = tested on: radiation-induced lung fibrosis; test: Mouse radiation-induced lung fibrosis model: lung density by HRCT; assay type: in vivo; conditions: 14.5 Gy irradiated mice, treated 8 weeks from week 16, measured at 24 weeks; FIG. 2
Procedure: (§1) The objective of this study was to compare the activity of pamrevlumab monotherapy to either pirfenidone or nintedanib alone, and to evaluate the potential for enhanced activity of the combined agents. […] In this study, mice received thoracic irradiation (RT), followed by the therapeutic administration of the agents at 16 weeks post-irradiation when lung remodeling was evident by HRCT. After 8 weeks of drug treatment, lung density and volume were assessed by HRCT, lung function was assessed by blood gas analysis, and mice were sacrificed for histologic and gene expression analysis. C57B1/6 mice were irradiated with 14.5 Gy photons; full thorax, single dose. Treatment with therapeutic agent(s) (pamrevlumab, pirfenidone, and/or nintedanib) was initiated 16 weeks post-irradiation and continued for 8 weeks. Pamrevlumab (FG) was given IP, BIW, at 40 mg/kg; pirfenidone (PF) was given PO in chow, QD, at 300 mg/kg; nintedanib (ND) was given PO in chow, QD, at 100 mg/kg. Treatment with each agent alone, with combinations of two, and with a triple combination were carried out. Controls included non-irradiated mice, mice that were irradiated and not treated, and mice that were irradiated and given human IgG. Endpoint measurements were taken at 24 weeks for HRCT (lung structure), blood gas analysis (lung function), histology and gene expression analysis. […]

[2] = tested on: radiation-induced lung fibrosis; test: Mouse radiation-induced lung fibrosis model: lung volume by HRCT; assay type: in vivo; conditions: 14.5 Gy irradiated mice, treated 8 weeks from week 16, measured at 24 weeks; FIG. 4
Procedure: as §1

[3] = tested on: fibrosis genes in irradiated lung; test: Microarray analysis of mRNA transcripts in irradiated lung; assay type: in vivo, mouse
Procedure: C57B1/6 mice were irradiated with 14.5 Gy photons; full thorax, single dose. Treatment with therapeutic agent(s) (pamrevlumab, pirfenidone, and/or nintedanib) was initiated 16 weeks post-irradiation and continued for 8 weeks. Pamrevlumab (FG) was given IP, BIW, at 40 mg/kg; pirfenidone (PF) was given PO in chow, QD, at 300 mg/kg; nintedanib (ND) was given PO in chow, QD, at 100 mg/kg. Treatment with each agent alone, with combinations of two, and with a triple combination were carried out. Controls included non-irradiated mice, mice that were irradiated and not treated, and mice that were irradiated and given human IgG. Endpoint measurements were taken at 24 weeks for HRCT (lung structure), blood gas analysis (lung function), histology and gene expression analysis.
Microarray analysis of mRNA transcripts of numerous genes at 24 weeks after RT were carried out by standard techniques to compare the expression profiles of irradiated and treated animals to irradiated animals that were not further treated. The results of the later group, RT (control), were used to normalize the expression data from the other groups. Briefly, RNA from 4-7 animals per condition (RT (control), RT+hIgG, RT+FG, RT+ND, RT+PF, RT+FG+ND, RT+FG+PF, RT+ND+PF, RT+FG+ND+PF). Affymetrix 430 2.0 data was used. RT induced changes (≥1.5×, p<0.05) were filtered for treatment dependent correction (>50% correction, p<0.05). 80 RT-induced and 68 RT-suppressed transcripts were normalized at least 50% by one or more treatments. The resulting list was dominated by pamrevlumab-dependent normalization. Functional analysis indicated pamrevlumab treatment preferentially normalized RT genes known to be regulated by TGFβ and TNF.

[4] = tested on: IPF; test: Phase two study in IPF patients: St. George's Respiratory Questionnaire (SGRQ); assay type: in vivo, human; conditions: 48 weeks treatment, compared with placebo, FIGS. 5A-5D
Procedure: (§2) A double-blind, placebo-controlled Phase two study was conducted in which 103 patients, randomized (1:1) to receive pamrevlumab or placebo, were treated for 48 weeks. Patients' self-administered the Saint George's Respiratory Questionnaire (SGRQ) to assess changes in health-related quality of life parameters over the course of the study. This questionnaire was developed for patients with chronic airflow limitation and the results correlate well with established measures of symptom level, disease activity and disability. Patients completed the SGRQ on Day 1 (baseline) and every 12 weeks thereafter during the 48-week treatment period. The SGRQ comprises three domains (symptoms, activity, and impact) with the score for each domain ranging from 0 to 100, with higher scores indicating worse health-related quality of life (Jones P W, et al. Respir Med 1991; 85:Suppl B:25-31; Barr J T et al. Clin Ther 2000; 22:1121-45).

[5] = Phase two study in IPF patients: treatment emergent adverse events; assay type: in vivo, human; conditions: Phase two trial, 48 weeks
Procedure: as §2
Patients in the Phase two clinical trial described above in Example 2 were monitored for the occurrence of treatment emergent adverse events. The percentage of patients treated with an anti-CTGF antibody (pamrevlumab) that experienced diarrhea was 16.0% compared to 7.5% for placebo treated patients. The percentage of patients treated with pamrevlumab that experienced nausea was 14.0% compared to 13.2% for placebo treated patients. […]

[6] = irradiated mouse lung, 24 weeks after RT, 8 weeks treatment, RT fold change 0.4

With pamrevlumab the “radiation-induced increase in lung density (Hounsfield Units)” value [1] was “significantly inhibited the increase in radiation-induced lung density from baseline”, the “radiation-induced lung volume decrease” value [2] was “significantly inhibited radiation-induced lung volume decrease from baseline” and the “% Normalization of gene expression, Igfbp5” value ([3]; irradiated mouse lung, 24 weeks after RT, 8 weeks treatment, RT fold change 0.3) was 70%. For the same substance, the “% Normalization of gene expression, Abca3” value [3, 6] was 75%, the “% Normalization of gene expression, Gdf2” value [3, 6] was 68% and the “% Normalization of gene expression, Cx3cl1” value ([3]; irradiated mouse lung, 24 weeks after RT, 8 weeks treatment, RT fold change 0.5) was 57%. For the same substance, the “% Normalization of gene expression, Retnla” value ([3]; irradiated mouse lung, 24 weeks after RT, 8 weeks treatment, RT fold change 2.0) was 43%, the “% Normalization of gene expression, Nt5e” value ([3]; irradiated mouse lung, 24 weeks after RT, 8 weeks treatment, RT fold change 2.1) was 53% and the “% Normalization of gene expression, Plat” value ([3]; irradiated mouse lung, 24 weeks after RT, 8 weeks treatment, RT fold change 2.2) was 51%. The “% Normalization of gene expression, Ccr2” value ([3]; irradiated mouse lung, 24 weeks after RT, 8 weeks treatment, RT fold change 2.4) was 37%, the “% Normalization of gene expression, Igfbp7” value ([3]; irradiated mouse lung, 24 weeks after RT, 8 weeks treatment, RT fold change 2.6) was 50% and the “% Normalization of gene expression, Cdkn2a” value ([3]; irradiated mouse lung, 24 weeks after RT, 8 weeks treatment, RT fold change 2.7) was 35%. The “% Normalization of gene expression, Apln” value ([3]; irradiated mouse lung, 24 weeks after RT, 8 weeks treatment, RT fold change 5.3) was 59%, the “% Normalization of gene expression, Wisp1” value ([3]; irradiated mouse lung, 24 weeks after RT, 8 weeks treatment, RT fold change 6.9) was 52% and the “% Normalization of gene expression, Wisp1” value ([3]; irradiated mouse lung, 24 weeks after RT, 8 weeks treatment, RT fold change 11.9) was 54%. For the same substance, the “normalization of fibrosis-related transcripts” value ([3]; microarray at 24 weeks after RT, monotherapies compared) was “normalized more fibrosis-related transcripts than other monotherapies”, the “SGRQ all domains (symptoms, activity, impact) and total score, change from baseline” value [4] was “improvement (lower values)” and the “percentage of patients that experienced diarrhea” value ([5]; placebo 7.5%) was 16.0%. For the same substance, the “percentage of patients that experienced nausea” value ([5]; placebo 13.2%) was 14.0%.
